Blank lines part the entries; values can stand above or below the molecule they belong to.
What was measured:
[1] = tested on: HAP1 MTAP-deleted cell line; assay: Viability assay, MTAP-deleted cell line; assay type: cell-based; conditions: Homo sapiens, read-out: HAP1 MTAP deleted viability
Excerpt: Table 1 additionally indicates IC50 values in a viability assay for the MTAP-deleted cell line (column 10), indicating the effect of treatment with compound on cell survival.

PRMT5 [2] = target: T1, PRMT5 (Homo sapiens, UniProt O14744); assay: PRMT5 biochemical IC50 assay with no cofactor; conditions: PRMT5, no cofactor
T1 construct: purchased Viva (custom protein)
Excerpt: Table 1 indicates IC50 values (μM) against PRMT5 for exemplary compounds in the presence of SAM as cofactor, with no cofactor, and with MTA as cofactor, respectively (columns 4-6). […] Ki values can be calculated from the IC50 values as described in the Examples section. As detailed in the Examples section, for the assay performed in the presence of SAM, IC50=Ki×1.5 (Ki=IC50/1.5).

[3] = tested on: HAP1 MTAP-intact cell line; assay: SDMA in-cell western assay, HAP1 MTAP-intact; assay type: cell-based; conditions: Homo sapiens, HAP1, SDMA in-cell western, HAP1 MTAP-intact; read-out: MTAP HAP1 intact IC50
Outline: (§1)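 IC50 values come from SDMA signal quantified by in-cell western in two HAP1 lines, one with native MTAP levels and one lacking MTAP.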

[4] = tested on: HAP1 MTAP-deleted cell line; assay: SDMA in-cell western assay, HAP1 MTAP-deleted; assay type: cell-based; conditions: for IC50: Homo sapiens, HAP1, SDMA in-cell western, HAP1 MTAP-deleted; for MTAP intact/deleted ratio: IC50 ratio HAP1 MTAP-intact / HAP1 MTAP-deleted, SDMA in-cell western
Outline: as §1

PRMT5 [5] = target: T1, PRMT5; assay: PRMT5 biochemical IC50 assay with SAM as cofactor; conditions: PRMT5, SAM as cofactor; read-out: SAM IC50
PRMT5 [6] = target: T1, PRMT5; assay: PRMT5 biochemical IC50 assay with MTA as cofactor; conditions: PRMT5, MTA as cofactor; read-out: MTA IC50
[7] = HAP1, viability assay, MTAP-deleted cell line
[8] = read-out: HAP1 MTAP deleted IC50
[9] = read-out: HAP 1 MTAP deleted IC50
[10] = HAP1, viability, HAP1 MTAP-deleted cell line
[11] = read-out: No Cofactor/ rel IC50

T1 sequence (O14744 whole entry): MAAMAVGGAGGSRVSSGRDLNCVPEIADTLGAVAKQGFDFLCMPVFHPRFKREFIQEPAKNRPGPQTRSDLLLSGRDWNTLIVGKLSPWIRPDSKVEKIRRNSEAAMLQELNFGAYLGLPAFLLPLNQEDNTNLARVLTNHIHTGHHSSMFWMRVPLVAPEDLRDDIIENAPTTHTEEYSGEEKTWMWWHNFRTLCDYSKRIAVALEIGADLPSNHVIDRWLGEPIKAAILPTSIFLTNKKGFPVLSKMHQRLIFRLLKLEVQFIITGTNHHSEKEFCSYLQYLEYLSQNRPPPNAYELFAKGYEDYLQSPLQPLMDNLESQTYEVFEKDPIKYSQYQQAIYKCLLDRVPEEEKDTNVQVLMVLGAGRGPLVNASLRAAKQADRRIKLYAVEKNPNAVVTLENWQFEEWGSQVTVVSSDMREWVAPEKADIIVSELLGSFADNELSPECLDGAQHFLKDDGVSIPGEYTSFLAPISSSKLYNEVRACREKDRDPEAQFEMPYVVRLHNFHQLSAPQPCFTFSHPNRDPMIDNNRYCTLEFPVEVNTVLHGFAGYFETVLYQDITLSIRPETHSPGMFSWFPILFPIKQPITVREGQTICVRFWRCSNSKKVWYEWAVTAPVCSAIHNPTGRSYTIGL
T1 sequence (Q9BQA1 whole entry partner): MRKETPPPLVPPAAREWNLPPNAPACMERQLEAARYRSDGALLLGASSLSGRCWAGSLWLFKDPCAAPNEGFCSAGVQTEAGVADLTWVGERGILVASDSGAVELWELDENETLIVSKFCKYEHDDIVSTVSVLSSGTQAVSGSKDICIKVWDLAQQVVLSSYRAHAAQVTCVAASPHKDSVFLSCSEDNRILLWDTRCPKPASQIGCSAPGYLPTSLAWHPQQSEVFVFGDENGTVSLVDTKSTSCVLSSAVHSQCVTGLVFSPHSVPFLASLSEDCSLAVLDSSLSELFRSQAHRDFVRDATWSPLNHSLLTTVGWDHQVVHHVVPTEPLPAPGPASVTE

IC50 (PRMT5 [2]; read-out: No Cofactor/rel IC50): < 50 nM | IC50 [3]: < 100 nM | IC50 [4, 9]: < 100 nM | IC50 (PRMT5 [5]): 50 to 500 nM | IC50 (PRMT5 [6]): < 50 nM
SMILES: Cc1cc(NC(=O)C(=O)N2C[C@H](C)CC[C@H]2c2ccc(N3CCN(C)CC3)nc2)cnc1N (single isomer, unassigned) [Compound 1014]
IC50 [1, 7]: < 1000 nM | MTAP intact/deleted ratio [4]: B (an IC50 ratio greater than or equal to 3 fold but lower than 10 fold)

IC50 (PRMT5 [2]; [11]): < 50 nM | IC50 [3]: < 100 nM | IC50 [4, 9]: < 100 nM | IC50 (PRMT5 [5]): 50 to 500 nM | IC50 (PRMT5 [6]): < 50 nM
SMILES: CCc1cc(NC(=O)C(=O)N2C[C@@H](C)CC[C@@H]2c2ccc3ccc(C4CCN(C)CC4)nc3c2)cnc1N [Compound 1365, N-(6-amino-5-ethyl-3-pyridyl)-2-oxo-2-[(2R,5S)-5-methyl-2-[2-(1-methyl-4-piperidyl)-7-quinolyl]-1-piperidyl]acetamide]
IC50 [1, 10]: < 1000 nM | MTAP intact/deleted ratio [4]: A (an IC50 ratio greater than or equal to 10 fold)

IC50 (PRMT5 [2]; [11]): < 50 nM | IC50 [3]: < 100 nM | IC50 [4, 9]: < 100 nM | IC50 (PRMT5 [5]): 50 to 500 nM | IC50 (PRMT5 [6]): < 50 nM
SMILES: CCc1cc(NC(=O)C(=O)N2C[C@@H](C)CC[C@@H]2c2ccc3sc(C4CC(C)(C)N(C)C(C)(C)C4)nc3c2)cnc1N [Compound 1340, N-(6-amino-5-ethylpyridin-3-yl)-2-((2R,5)-5-methyl-2-(2-(1,2,2,6,6-pentamethylpiperidin-4-yl)benzo[d]thiazol-5-yl)piperidin-1-yl)-2-oxoacetamide]
IC50 [1, 10]: < 1000 nM | MTAP intact/deleted ratio [4]: A (an IC50 ratio greater than or equal to 10 fold)

Second part, the molecule before the results:

SMILES: C[C@@H]1CC[C@@H](c2ccc(Cn3ccnc3)cc2)N(C(=O)C(=O)Nc2cncc(C(N)=O)c2)C1 (racemic) [Compound 238, rac-5-{2-[(2R,5S)-2-{4-[(1H-Imidazol-1-yl)methyl]phenyl}-5-methylpiperidin-1-yl]-2-oxoacetamido}pyridine-3-carboxamide]
IC50 [1, 7]: 1000 to 10000 nM | IC50 (PRMT5 [2]; read-out: No Cofactor/rel IC50): 50 to 500 nM | IC50 [3]: > 1000 nM | IC50 [4, 8]: 100 to 1000 nM | MTAP intact/deleted ratio [4]: A (an IC50 ratio greater than or equal to 10 fold) | IC50 (PRMT5 [5]): 50 to 500 nM | IC50 (PRMT5 [6]): < 50 nM

SMILES: NC(=O)c1cncc(NC(=O)C(=O)N2CCC3(CCCCC3)CC2)c1 [Compound 203, 5-[[2-(3-Azaspiro[5.5]undecan-3-yl)-2-oxo-acetyl]amino]pyridine-3-carboxamide]
IC50 [1, 7]: > 10000 nM | IC50 (PRMT5 [2]; read-out: No Cofactor/rel IC50): > 500 nM | IC50 [3]: > 1000 nM | IC50 [4, 8]: 100 to 1000 nM | MTAP intact/deleted ratio [4]: A (an IC50 ratio greater than or equal to 10 fold) | IC50 (PRMT5 [5]): 50 to 500 nM | IC50 (PRMT5 [6]): < 50 nM

SMILES: Cc1cc(NC(=O)C(=O)N2C[C@H](C)CC[C@H]2[C@H]2CC[C@@H](O)CC2)cnc1N (single isomer, unassigned) [Compound 436]
IC50 [1, 7]: > 10000 nM | IC50 (PRMT5 [2]; read-out: No Cofactor/rel IC50): 50 to 500 nM | IC50 [3]: > 1000 nM | IC50 [4, 8]: 100 to 1000 nM | MTAP intact/deleted ratio [4]: A (an IC50 ratio greater than or equal to 10 fold) | IC50 (PRMT5 [5]): 50 to 500 nM | IC50 (PRMT5 [6]): 50 to 500 nM

SMILES: CNC(=O)c1ccc([C@H]2CC[C@H](C)CN2C(=O)C(=O)Nc2cnc(OC)c(C(N)=O)c2)s1 (single isomer, unassigned) [Compound 833]
IC50 ([1]; HAP1, viability assay, HAP1 MTAP-deleted): < 1000 nM | IC50 (PRMT5 [2]; read-out: No Cofactor/rel IC50): 50 to 500 nM | IC50 [3]: 100 to 1000 nM | IC50 [4, 8]: < 100 nM | MTAP intact/deleted ratio [4]: A (an IC50 ratio greater than or equal to 10 fold) | IC50 (PRMT5 [5]): 50 to 500 nM | IC50 (PRMT5 [6]): < 50 nM

SMILES: CC(=O)N[C@H]1C[C@H]([C@H]2CC[C@H](C)CN2C(=O)C(=O)Nc2cnc(N)c(C)c2)C1 (single isomer, unassigned) [Compound 563]
IC50 ([1]; HAP1, viability IC50, MTAP-deleted cell line): > 10000 nM | IC50 (PRMT5 [2]; read-out: No Cofactor/rel IC50): > 500 nM | IC50 [3]: > 1000 nM | IC50 [4, 9]: > 1000 nM | MTAP intact/deleted ratio [4]: C (an IC50 ratio of less than 3 fold) | IC50 (PRMT5 [5]): > 500 nM | IC50 (PRMT5 [6]): > 500 nM
